Results published in ChEMBL document CHEMBL1135206, “Albumin affinity tags increase peptide half-life in vivo” (Bioorg Med Chem Lett, 2002).
Where a SMILES comes first, the peptide text is derived from it. Bridges are numbered along the chain shown (N, C = ends). The star is where a group is joined. Benzoyl(4-Ph) = O=C(c1ccc(-c2ccccc2)cc1)*; X1 = CC(C)Cc1ccc([C@@H](C)C(=O)*)cc1

Assays:
[1] = molecular target: T1, Coagulation factor VII (Homo sapiens, UniProt P08709); assay: Inhibition of amino terminally biotinylated E-76 peptide binding to immobilized fVIIa
T1 sequence (P08709 whole entry): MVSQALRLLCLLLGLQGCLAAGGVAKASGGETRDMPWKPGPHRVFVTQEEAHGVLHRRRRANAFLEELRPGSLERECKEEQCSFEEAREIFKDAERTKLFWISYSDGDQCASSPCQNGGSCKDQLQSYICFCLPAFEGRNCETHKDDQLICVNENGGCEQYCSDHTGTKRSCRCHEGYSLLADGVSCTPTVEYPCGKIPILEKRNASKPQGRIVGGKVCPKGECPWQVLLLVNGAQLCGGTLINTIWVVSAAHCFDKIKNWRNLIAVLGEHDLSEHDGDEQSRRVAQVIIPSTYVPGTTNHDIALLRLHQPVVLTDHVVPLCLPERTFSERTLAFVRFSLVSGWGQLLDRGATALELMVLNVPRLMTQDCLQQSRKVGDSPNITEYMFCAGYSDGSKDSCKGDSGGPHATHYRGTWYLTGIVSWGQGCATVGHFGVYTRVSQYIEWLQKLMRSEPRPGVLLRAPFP

[2] = molecular target: Albumin (Homo sapiens, UniProt P02768); assay: In vitro binding affinity for human serum albumin.; design: unit not given here
Chain of Albumin (P02768 whole entry): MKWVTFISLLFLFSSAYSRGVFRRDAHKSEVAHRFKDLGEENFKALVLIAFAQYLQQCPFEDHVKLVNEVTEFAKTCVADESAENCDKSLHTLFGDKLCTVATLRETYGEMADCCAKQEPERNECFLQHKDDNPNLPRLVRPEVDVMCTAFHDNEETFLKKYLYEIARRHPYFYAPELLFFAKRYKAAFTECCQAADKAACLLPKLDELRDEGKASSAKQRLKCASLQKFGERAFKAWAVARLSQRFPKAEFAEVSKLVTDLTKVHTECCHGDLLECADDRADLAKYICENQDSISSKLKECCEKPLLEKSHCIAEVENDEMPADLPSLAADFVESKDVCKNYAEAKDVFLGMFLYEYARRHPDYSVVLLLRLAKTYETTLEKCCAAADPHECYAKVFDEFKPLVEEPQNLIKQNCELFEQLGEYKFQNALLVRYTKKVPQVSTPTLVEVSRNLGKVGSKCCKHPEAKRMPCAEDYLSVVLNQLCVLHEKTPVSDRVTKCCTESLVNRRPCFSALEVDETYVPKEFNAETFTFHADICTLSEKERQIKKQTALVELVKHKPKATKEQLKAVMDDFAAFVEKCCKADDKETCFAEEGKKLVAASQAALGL

[3] = Mean retention time in male New Zealand white rabbits after administration via an indwelling catheter in an ear vein at 5 mg/kg; format: ADME, organism-based, Oryctolagus cuniculus; design: dose 5 mg/kg; settings: rabbit, in vivo, iv
[4] = Clearance in male New Zealand white rabbits after administration via an indwelling catheter in an ear vein at 5 mg/kg; format: ADME, organism-based, Oryctolagus cuniculus; design: dose 5 mg/kg; settings: rabbit, in vivo, iv
[5] = Plasma half-life in male New Zealand white rabbits after administration via an indwelling catheter in an ear vein at 5 mg/kg; format: ADME, organism-based, Oryctolagus cuniculus; design: dose 5 mg/kg; settings: rabbit, iv
[6] = Plasma half-life in male New Zealand white rabbits after administration via an indwelling catheter in an ear vein at 4.9 mg/kg; format: ADME, organism-based, Oryctolagus cuniculus; design: dose 4.9 mg/kg; settings: rabbit, iv
[7] = Clearance in male New Zealand white rabbits after i.v. administration at 2.0 mg/kg; format: ADME, organism-based, Oryctolagus cuniculus; design: dose 2 mg/kg, route intravenous; settings: rabbit, in vivo, iv
[8] = Plasma half-life in male New Zealand white rabbits after i.v. administration at 2.0 mg/kg; format: ADME, organism-based, Oryctolagus cuniculus; design: dose 2 mg/kg, route intravenous; settings: rabbit, iv
[9] = Mean retention time in male New Zealand white rabbits after administration via an indwelling catheter in an ear vein at 4.9 mg/kg; format: ADME, organism-based, Oryctolagus cuniculus; design: dose 4.9 mg/kg; settings: rabbit, in vivo, iv
[10] = Mean retention time in male New Zealand white rabbits after i.v. administration at 2.0 mg/kg; format: ADME, organism-based, Oryctolagus cuniculus; design: dose 2 mg/kg, route intravenous; settings: rabbit, in vivo, iv
[11] = Clearance in male New Zealand white rabbits after administration via an indwelling catheter in an ear vein at 4.9 mg/kg; format: ADME, organism-based, Oryctolagus cuniculus; design: dose 4.9 mg/kg; settings: rabbit, in vivo, iv

Row | Compound | IC50 [1] [nM] | Binding affinity [2] | MRT [3] [min] | clearance [4] [mL/min/kg] | half-life [5] [min] | half-life [6] [min] | clearance [7] [mL/min/kg] | half-life [8] [min] | MRT [9] [min] | MRT [10] [min] | clearance [11] [mL/min/kg]
1 | CC[C@H](C)[C@@H]1NC(=O)[C@H](CCCN=C(N)N)NC(=O)[C@@H]2CCCN2C(=O)[C@H](CC(N)=O)NC(=O)[C@H](CC(=O)O)NC(=O)[C@@H](NC(=O)[C@H](CC(C)C)NC(=O)[C@H](C)NC(C)=O)CSSC[C@@H](C(=O)N[C@@H](CCC(N)=O)C(=O)N[C@@H](Cc2ccccc2)C(=O)N[C@H](C(=O)N[C@@H](CCC(=O)O)C(=O)NCC(N)=O)C(C)C)NC(=O)[C@H](Cc2ccc(O)cc2)NC(=O)[C@H](Cc2c[nH]c3ccccc23)NC(=O)[C@H](CCCN=C(N)N)NC(=O)[C@H](CC(=O)O)NC1=O (Ac-ALCDNPRIDRWYCQFVEG-NH2; disulfide 3-13) | 1.1 | 0.21 | 3.2 | 33 | 5 |  |  |  |  |  | 
2 | CC[C@H](C)[C@@H]1NC(=O)[C@H](CCCN=C(N)N)NC(=O)[C@@H]2CCCN2C(=O)[C@H](CC(N)=O)NC(=O)[C@H](CC(=O)O)NC(=O)[C@@H](NC(=O)[C@H](CC(C)C)NC(=O)[C@H](C)NC(=O)[C@H](C)c2ccc(CC(C)C)cc2)CSSC[C@@H](C(=O)N[C@@H](CCC(N)=O)C(=O)N[C@@H](Cc2ccccc2)C(=O)N[C@H](C(=O)N[C@@H](CCC(=O)O)C(=O)NCC(N)=O)C(C)C)NC(=O)[C@H](Cc2ccc(O)cc2)NC(=O)[C@H](Cc2c[nH]c3ccccc23)NC(=O)[C@H](CCCN=C(N)N)NC(=O)[C@H](CC(=O)O)NC1=O (X1-ALCDNPRIDRWYCQFVEG-NH2; disulfide 3-13) | 14.6 | 0.76 |  |  |  | 24 | 1.8 | 17 | 33 | 19 | 1.5
3 | CC[C@H](C)[C@@H]1NC(=O)[C@H](CCCN=C(N)N)NC(=O)[C@@H]2CCCN2C(=O)[C@H](CC(N)=O)NC(=O)[C@H](CC(=O)O)NC(=O)[C@@H](NC(=O)[C@H](CC(C)C)NC(=O)[C@H](C)NC(=O)c2ccc(-c3ccccc3)cc2)CSSC[C@@H](C(=O)N[C@@H](CCC(N)=O)C(=O)N[C@@H](Cc2ccccc2)C(=O)N[C@H](C(=O)N[C@@H](CCC(=O)O)C(=O)NCC(N)=O)C(C)C)NC(=O)[C@H](Cc2ccc(O)cc2)NC(=O)[C@H](Cc2c[nH]c3ccccc23)NC(=O)[C@H](CCCN=C(N)N)NC(=O)[C@H](CC(=O)O)NC1=O ({Benzoyl(4-Ph)}-ALCDNPRIDRWYCQFVEG-NH2; disulfide 3-13) | 4 | 0.62 | 17 | 4.3 | 15 |  |  |  |  |  | 
